Tests used:
EAE in C57BL/6 mice = experiment: EAE mouse model (behavioral score, splenic CD4+ T cells, spinal cord histology); format: in vivo
Protocol: Thus, the inventors used the experimental autoimmune encephalomyelitis (EAE) mouse model to study the impact of NAD^+, in vivo, on IL-10, Th1, Th17 and Treg cells in vivo. […] Next, the mechanisms by which NAD^+ protected from EAE in vivo were investigated, in particular its impact on IL-10 cytokine, Th1, Th17 and Tregs. Spleens were isolated from mice treated with NAD^+ or with a placebo solution 15 days after MOG immunization and CD4^+ T cell cytokine expression profile was analyzed by flow cytometry.
To assess the clinical efficacy of NAD^+ as a potential robust therapeutic, a group of mice that developed severe clinical symptoms of EAE (e.g., bilateral hindlimb paresis) was subjected to a daily NAD^+ treatment 15 days after MOG immunization.
Thus, the mechanism of how NAD^− treatment was able to reverse EAE progression was investigated. A previous study reported that nicotinamide (Nam) an NAD biosynthesis precursor can protect from myelin degradation and axon degeneration^43. The results described herein indicate that NAD^+ administered after the disease onset was able to reverse the progression of EAE. Thus, the inventors assessed whether NAD^+ was able to reverse the clinical symptoms of EAE by protecting axon from degeneration and whether NAD^+ had the capacity to promote myelin regeneration. […] Moreover, demyelination and axon loss were assessed with antibodies to myelin basic protein (MBP/SMI-9) and neurofilament (NF200), respectively, in all three groups (FIG. 5A-5F). Consistent with H&E and luxol blue findings, a significant reduction in both MBP staining depicting demyelination and axon loss evidenced by reduced NF 200 staining was very prominent in the group of mice treated with a placebo solution (FIG. 5A and 5D) when compared to the daily NAD^| treated group (FIG. 5B and 5E) and with mice treated with NAD+ after develop hindlimb paralysis (15 days after MOG immunization) (FIG. 5C and 5F).
EAE was induced in 10-week-old C57BL/6 mice using Hooke Labs EAE induction kit (EK-2110) according to manufacturer's instructions. […] For NAD^+ treatment mice received a daily intraperitoneal injection (60 mg in 100 μl in PBS) or a placebo solution (100 μl of PBS) at the same day than MOG immunization. Mice were sacrificed at day 18 and single cell suspension was obtained from spleens for flow cytometry analysis. To test whether NAD^+ was able to reverse the development of EAE, another group of mice was treated daily (for a period of 10 days) with NAD^+ (60 mg/mouse) or a placebo solution 15 days after MOG immunization when mice were scored 3 with a bilateral hindlimb paresis. EAE disease progression was monitored. For Tph-1 or CA3 inhibition, mice received daily intraperitoneal injections (simultaneous to NAD^−) of p-Chlorophenylalanine (1 ml of a 10 mM solution stock, catalog number 0938, Tocris Bioscience) or N-[[[(1S)-1-Carboxy-3-methylbutyl]amino]carbonyl]-L-glutamic acid (100 μl of a 100 mM solution stock, ZJ 43 catalog number 2675,Tocris Bioscience), respectively.

naïve CD4+ T cells = experiment: Naïve CD4+ T cell differentiation under Th17 polarizing conditions; format: cell-based, mouse
Excerpt: To elucidate the role of NAD^+ on CD4^− T cell differentiations in Th17 polarizing conditions, isolated naïve CD4^+ T cells were activated with anti-CD3/CD28 antibodies in the presence of recombinant TGFβ, IL-6 and anti-IL-4, anti-IL-12, and anti-IFNγ antibodies. […] Of note, expression of the pro-inflammatory cytokine TNF-α was inhibited in presence of NAD^+ (FIG. 1E).
Single-cell leukocyte suspensions were obtained from spleens from 8-10 week old DBA mice and CD4^− T cells were isolated by negative selection using a CD4^+ T cell isolation kit (MILTENYI BIOTEC, Bergisch Gladbach, Germany). Cells were further sorted using α-CD4-PE (EBIOSCIENCE, San Diego, Calif.) and purities of CD4^+ T cells after isolation were >98%.
All recombinant cytokines and antibodies were purchased from EBIOSCIENCE except recombinant TGF-β cytokine (R&D SYSTEMS, Minneapolis, Minn.). After 96 hrs of culture supernatants and cells were collected and analyzed by ELISA and flow cytometry, respectively.
Fluorescently labeled anti-mouse α-CD4 (GK1.5), α-CD25 (PC61), α-IFN-γ (XMG1.2) and unlabeled α-CD16/CD32 (2.4G2) antibodies were obtained from BD BIOSCIENCES (San Jose, Calif.). Fluorescently labeled anti-mouse α-IL-4 (FJK-16s), α-IL-10 (JES5-16E3), α-IL-17A (eBio17B7), and anti-TGFβ (TW7-16B4) were obtained from eBIOSCIENCE (San Diego, Calif.). Intracellular staining for IL-4, IL-10, IL-17A, IFNγ and TGFβ was performed according to manufacturers' protocols. Splenocytes were re-stimulated in complete media (RPMI media containing 10% FCS, 1% L-Glutamine, 1% Penicillin/Streptomycin; all Bio Whittaker, Walkersville, Md.) for 4 hours at 37° C. with ionomycin, phorbol 12-myristate 13-acetate and Brefelding A (EBIOSCIENCE). Cells were fixed and permeabilized using CYTOFIX/CYTOPERM solution (BD BIOSCIENCES). Flow cytometry measurements of single-cell suspensions were performed on a FACSCalibur using standard procedures and data were analyzed using FLOWJO software (TREE STAR, Ashland, Oreg.).

[1] = MOG-immunized mice, daily i.p. NAD+ from day of immunization
[2] = daily NAD+ and NAD+ from 15 days after MOG immunization
[3] = spleen, EAE mice, daily NAD+ vs placebo, flow cytometry

## NC(=O)c1ccc[n+]([C@@H]2O[C@H](COP(=O)([O-])OP(=O)(O)OC[C@H]3O[C@@H](n4cnc5c(N)ncnc54)[C@H](O)[C@@H]3O)[C@@H](O)[C@H]2O)c1 [NAD+, nicotinamide adenine dinucleotide]
EAE in C57BL/6 mice; EAE mice treated daily with NAD+
  spinal cord inflammatory infiltrate, myelin loss and axonal injury (LFB and H&E stainings): remained free of inflammatory infiltrate, myelin loss, and axonal injury
EAE in C57BL/6 mice; [1]
  EAE (behavioral score): protected against EAE
  paralysis: no sign of paralysis
EAE in C57BL/6 mice; NAD+ started 15 days after MOG immunization (after hindlimb paralysis)
  spinal cord inflammatory infiltrate, myelin loss and axonal injury (LFB and H&E stainings): did not show inflammatory infiltrate, myelin loss, and axonal injury
EAE in C57BL/6 mice; [2]
  myelination positive area (MBP), spinal cord: significant protection and recovery
  neurofilament positive area (NF200), spinal cord: significant protection and recovery
EAE in C57BL/6 mice; daily NAD+ started 15 days after MOG immunization
  time of treatment until bilateral hindlimb paresis abolished: ≤ 10 days
EAE in C57BL/6 mice; daily NAD+ started 15 days after MOG immunization (bilateral hindlimb paresis), vs placebo
  progression of EAE: reversed the progression of the disease
EAE in C57BL/6 mice; daily NAD+, after 25 days
  development of EAE: did not develop EAE
EAE in C57BL/6 mice; spleen, EAE mice, daily NAD+ vs control group, flow cytometry
  systemic IL-10 cytokine production by CD4+IFNγ+ cells: dramatically enhanced
EAE in C57BL/6 mice; [3]
  IFNγ production by CD4+ T cells: promoted
  Th17 response: promoted a robust Th17 response
  number of CD4+CD25+Foxp3+ cells: reduced
naïve CD4+ T cells; ELISA
  IL-10 cytokine production: reduced
  IL-17 cytokine production: did not affect
  TNF-α expression: inhibited
naïve CD4+ T cells; flow cytometry
  CD4+IL-17A+ cells: no changes

Reference: US20160067272A1, “METHODS FOR TREATING IMMUNE DISEASES” (priority 2013, published 2016)
